For the experiment, the target named is gamma-aminobutyric acid type A (GABAA) receptor α1(L264T)β2γ2L (Homo sapiens, UniProt P14867+P47870, P14867:L291T). Briefly: cell-based.

As usually defined, the EC50 is the concentration needed to bring the measured effect to its halfway point. High values mean weaker potency, low ones greater potency.

Sequence of gamma-aminobutyric acid type A (GABAA) receptor α1(L264T)β2γ2L (P14867 28-456 L291T): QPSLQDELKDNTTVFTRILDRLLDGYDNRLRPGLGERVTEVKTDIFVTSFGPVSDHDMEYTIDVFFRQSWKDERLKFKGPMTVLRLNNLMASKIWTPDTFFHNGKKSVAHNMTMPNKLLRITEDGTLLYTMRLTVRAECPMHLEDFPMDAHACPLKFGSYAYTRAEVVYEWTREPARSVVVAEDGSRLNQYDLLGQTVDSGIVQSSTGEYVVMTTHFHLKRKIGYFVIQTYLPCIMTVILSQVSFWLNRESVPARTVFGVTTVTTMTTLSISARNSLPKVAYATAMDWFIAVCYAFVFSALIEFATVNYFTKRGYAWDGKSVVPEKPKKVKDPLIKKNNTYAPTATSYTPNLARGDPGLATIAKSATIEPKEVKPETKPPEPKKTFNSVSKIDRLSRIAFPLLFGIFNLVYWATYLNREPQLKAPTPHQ
Sequence of gamma-aminobutyric acid type A (GABAA) receptor α1(L264T)β2γ2L (P47870 26-512): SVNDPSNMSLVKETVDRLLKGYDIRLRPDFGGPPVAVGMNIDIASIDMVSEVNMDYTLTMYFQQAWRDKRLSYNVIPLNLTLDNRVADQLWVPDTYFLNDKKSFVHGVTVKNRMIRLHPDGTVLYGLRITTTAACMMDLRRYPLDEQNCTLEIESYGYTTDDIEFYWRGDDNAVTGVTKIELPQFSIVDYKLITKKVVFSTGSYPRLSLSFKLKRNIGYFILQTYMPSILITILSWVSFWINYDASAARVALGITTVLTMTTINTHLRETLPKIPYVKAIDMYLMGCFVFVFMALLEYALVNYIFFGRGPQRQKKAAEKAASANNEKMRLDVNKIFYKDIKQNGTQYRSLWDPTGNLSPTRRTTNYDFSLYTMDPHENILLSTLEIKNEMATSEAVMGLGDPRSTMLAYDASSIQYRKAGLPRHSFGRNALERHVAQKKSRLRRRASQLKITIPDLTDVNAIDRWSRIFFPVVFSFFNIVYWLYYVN
Sequence of gamma-aminobutyric acid type A (GABAA) receptor α1(L264T)β2γ2L (P18507 40-475 partner): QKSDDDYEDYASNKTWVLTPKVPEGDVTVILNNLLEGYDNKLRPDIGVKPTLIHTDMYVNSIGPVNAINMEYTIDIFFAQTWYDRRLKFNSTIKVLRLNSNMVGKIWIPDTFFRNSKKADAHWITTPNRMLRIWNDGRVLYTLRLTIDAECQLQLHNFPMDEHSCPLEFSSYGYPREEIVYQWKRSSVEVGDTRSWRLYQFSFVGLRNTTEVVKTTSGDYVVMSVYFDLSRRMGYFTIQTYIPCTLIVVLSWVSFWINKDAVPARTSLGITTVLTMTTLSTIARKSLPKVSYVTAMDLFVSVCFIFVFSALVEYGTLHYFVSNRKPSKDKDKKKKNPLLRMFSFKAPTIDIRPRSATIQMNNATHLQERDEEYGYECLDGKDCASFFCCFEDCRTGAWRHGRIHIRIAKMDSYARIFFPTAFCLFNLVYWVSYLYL

Molecule `COC(=O)CCOC(=O)c1cncn1[C@H](C)c1ccccc1` [MOC-etomidate, methoxycarbonyl etomidate] came in with an EC50 of 10 ± 2.5 µM.
`C[C@H](c1ccccc1)n1cncc1C(=O)OCCC(=O)O` [MOC-ECA]: the concentration giving a half-maximal response (EC50) is 3500 ± 630 µM. Compared with the last molecule, the EC50 is about 350-fold higher.

Values taken from paper PMC3291806 (2011).
